Data: EP2931723B1, “NEW BICYCLIC COMPOUNDS AND THEIR USE AS ANTIBACTERIAL AGENTS AND -LACTAMASE INHIBITORS” (Fedora Pharmaceuticals Inc., priority 2012, dated 2014)

Tests used:
Assay in all cases: MIC, antibacterial and synergistic activity
Assay type in all cases: cell-based
E. coli ATCC 25922 = E. coli ATCC 25922 (Wt)
A. baumanii JMI 2659 = A. baumanii JMI 2659 (Ges-14 (Cpase))
E.coli JMI 4103 = E.coli JMI 4103 (KPC-2, Tem-1, CMY-Type)
E. coli JMI 10768 [1] = details: E. coli JMI 10768 (CTX-M15 (Weak ESBL))
Experimental: In the Tables 10 - 12, compounds herein disclosed were tested in combination with various antibiotics against metallo β-lactamase producing bacteria. Table 3: Synergy of the inhibitor Ex. 1 (4 µg/mL) in combination with antibiotics

K. pneumo JMI 2673 = K. pneumo JMI 2673 (CTX-M14 (ESBL))
Procedure, shortened: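 Compounds were evaluated together with various antibiotics to measure synergistic antibacterial activity. For each combination, the minimum inhibitory concentration of the antibiotic was recorded while the inhibitor was present at a constant 4 µg/mL.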

K. pneumo JMI 2699 = K. pneumo JMI 2699 (VIM-1, CTX-M3)
Procedure, shortened: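 MBL strains; antibiotic + inhibitor 4 µg/mL; MIC.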

P. aerug JMI 2686 [2] = details: P. aerug JMI 2686 (KPC-2 (Cpase))
Procedure, shortened: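 This antibacterial synergy assay measured the minimum inhibitory concentration of antibiotics combined with the disclosed inhibitor compounds. The inhibitor was held at 4 µg/mL throughout. The aim was to see whether the added compound strengthened the antibiotic's action against the tested bacteria.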

K. pneumo JMI 4106 = K. pneumo JMI 4106 (KPC-3, TEM-1, SHV-12, SHV-141)
E. coli JMI 2692 = E. coli JMI 2692 (NDM-1, TEM-1, CTX-M-15)
Experimental: (§1) In the Tables 10 - 12, compounds herein disclosed were tested in combination with various antibiotics against metallo β-lactamase producing bacteria.

K. pneumo JMI 2693 = K. pneumo JMI 2693 (NDM-1 (Cpase))
Experimental: as §1

K. pneumo JMI 2697 = K. pneumo JMI 2697 (IMP-4 (Cpase))
Experimental: as §1

K. pneumo JMI 2681 = K. pneumo JMI 2681 (Oxa-48 (Cpase))
P. aerug JMI 149 = P. aerug JMI 149 (Bla+++D+)
E. cloacae JMI 36 = E. cloacae JMI 36 (P99)
K.pneumo JMI 4109 = K.pneumo JMI 4109 (SHV-1, SHV-12); substance alone
K. pneumo JMI 2674 = K. pneumo JMI 2674 (CTX-M15 (ESBL)); substance alone
K. pneumo JMI 4088 = K. pneumo JMI 4088 (KPC-3 (Cpase)); substance alone
P. aerug JMI 2686 [3] = details: P. aerug JMI 2686 (KPC-2 (Cpase)); substance alone
E. coli JMI 10767 = E. coli JMI 10767 (Wt)
E. coli JMI 10768 [4] = details: E. coli JMI 10768 (CTX-M15 (Weak ESBL)); Meropenem + inhibitor at 4 µg/mL
E. coli JMI 10770 = details: Escherichia coli, JMI10770; E. coli JMI 10770 (CTX-M15 (Hyper ESBL)); substance alone
E. coli JMI 11103 = test system: E. coli JMI 11103
[5] = Aztreonam + inhibitor at 4 µg/mL
[6] = Ceftazidime + inhibitor at 4 µg/mL
[7] = Meropenem + inhibitor at 4 µg/mL

CC(=O)NNC(=O)[C@@H]1CC[C@@H]2CN1C(=O)N2OS(=O)(=O)O [Ex. 5, (2S,5R)-N'-acetyl-7-oxo-6-(sulfooxy)-1,6-diazabicyclo[3.2.1]octane-2-carbohydrazide]
MIC Aztreonam + inhibitor (E. coli ATCC 25922; [5]): ≤0.062 µg/mL | MIC Ceftazidime + inhibitor (E. coli ATCC 25922; [6]): ≤0.25 µg/mL | MIC Meropenem + inhibitor (E. coli ATCC 25922; [7]): ≤0.031 µg/mL | MIC (E. coli ATCC 25922; Escherichia coli, ATCC25922, substance alone): 2 µg/mL | MIC Aztreonam + inhibitor (A. baumanii JMI 2659; [5]): >4 µg/mL | MIC Ceftazidime + inhibitor (A. baumanii JMI 2659; [6]): >16 µg/mL | MIC Meropenem + inhibitor (A. baumanii JMI 2659; [7]): >2 µg/mL | MIC (A. baumanii JMI 2659; Acinetobacter baumannii, JMI2659, substance alone, read-out: MIC): > 16 µg/mL | MIC Aztreonam + inhibitor (E.coli JMI 4103; [5]): ≤0.062 µg/mL | MIC Ceftazidime + inhibitor (E.coli JMI 4103; [6]): ≤0.25 µg/mL | MIC Meropenem + inhibitor (E.coli JMI 4103; [7]): ≤0.031 µg/mL | MIC (E.coli JMI 4103; Escherichia coli, JMI4103, substance alone): 8 µg/mL | MIC Aztreonam + inhibitor (E. coli JMI 10768 [1]; [5]): ≤0.062 µg/mL | MIC Ceftazidime + inhibitor (E. coli JMI 10768 [1]; [6]): ≤0.25 µg/mL | MIC (E. coli JMI 10768 [1]; Escherichia coli, JMI10768, substance alone): 8 µg/mL | MIC Aztreonam + inhibitor (K. pneumo JMI 2673; [5]): ≤0.062 µg/mL | MIC Ceftazidime + inhibitor (K. pneumo JMI 2673; [6]): ≤0.25 µg/mL | MIC Meropenem + inhibitor (K. pneumo JMI 2673; [7]): ≤0.031 µg/mL | MIC Aztreonam + inhibitor (K. pneumo JMI 2699; [5]): ≤0.062 µg/mL | MIC Ceftazidime + inhibitor (K. pneumo JMI 2699; [6]): 2 µg/mL | MIC Meropenem + inhibitor (K. pneumo JMI 2699; [7]): ≤0.031 µg/mL | MIC (K. pneumo JMI 2699; substance alone, read-out: MIC): > 16 µg/mL | MIC Aztreonam + inhibitor (P. aerug JMI 2686 [2]; [5]): >4 µg/mL | MIC Ceftazidime + inhibitor (P. aerug JMI 2686 [2]; [6]): >16 µg/mL | MIC Meropenem + inhibitor (P. aerug JMI 2686 [2]; [7]): >2 µg/mL | MIC Aztreonam + inhibitor (K. pneumo JMI 4106; [5]): 1 µg/mL | MIC Ceftazidime + inhibitor (K. pneumo JMI 4106; [6]): 0.5 µg/mL | MIC Meropenem + inhibitor (K. pneumo JMI 4106; [7]): 2 µg/mL | MIC (K. pneumo JMI 4106; substance alone, read-out: MIC): > 16 µg/mL | MIC Aztreonam + inhibitor (E. coli JMI 2692; [5]): ≤0.062 µg/mL | MIC Ceftazidime + inhibitor (E. coli JMI 2692; [6]): ≤0.25 µg/mL | MIC Meropenem + inhibitor (E. coli JMI 2692; [7]): ≤0.031 µg/mL | MIC (E. coli JMI 2692; Escherichia coli, JMI2692, substance alone, read-out: MIC): 2 µg/mL | MIC Aztreonam + inhibitor (K. pneumo JMI 2693; [5]): 0.5 µg/mL | MIC Ceftazidime + inhibitor (K. pneumo JMI 2693; [6]): 0.5 µg/mL | MIC Meropenem + inhibitor (K. pneumo JMI 2693; [7]): 0.125 µg/mL | MIC (K. pneumo JMI 2693; substance alone): > 16 µg/mL | MIC Aztreonam + inhibitor (K. pneumo JMI 2697; [5]): ≤0.062 µg/mL | MIC Ceftazidime + inhibitor (K. pneumo JMI 2697; [6]): >2 µg/mL | MIC Meropenem + inhibitor (K. pneumo JMI 2697; [7]): 0.125 µg/mL | MIC (K. pneumo JMI 2697; substance alone): 16 µg/mL | MIC Aztreonam + inhibitor (K. pneumo JMI 2681; [5]): 0.5 µg/mL | MIC Ceftazidime + inhibitor (K. pneumo JMI 2681; [6]): ≤0.25 µg/mL | MIC Meropenem + inhibitor (K. pneumo JMI 2681; [7]): 2 µg/mL | MIC (K. pneumo JMI 2681; substance alone, read-out: MIC): 16 µg/mL | MIC Aztreonam + inhibitor (P. aerug JMI 149; [5]): >4 µg/mL | MIC Ceftazidime + inhibitor (P. aerug JMI 149; [6]): >16 µg/mL | MIC Meropenem + inhibitor (P. aerug JMI 149; [7]): 0.5 µg/mL | MIC (P. aerug JMI 149; substance alone, read-out: MIC): > 16 µg/mL | MIC Aztreonam + inhibitor (E. cloacae JMI 36; [5]): >4 µg/mL | MIC Ceftazidime + inhibitor (E. cloacae JMI 36; [6]): 16 µg/mL | MIC Meropenem + inhibitor (E. cloacae JMI 36; [7]): 0.125 µg/mL | MIC (E. cloacae JMI 36; Enterobacter cloacae, JMI36, substance alone, read-out: MIC): > 16 µg/mL | MIC (K.pneumo JMI 4109): > 16 µg/mL | MIC (K. pneumo JMI 2674): > 16 µg/mL | MIC (K. pneumo JMI 4088): > 16 µg/mL | MIC (P. aerug JMI 2686 [3]): 16 µg/mL | MIC Meropenem + inhibitor (E. coli JMI 10767; [7]): ≤0.031 µg/mL | MIC (E. coli JMI 10767; Escherichia coli, JMI10767, substance alone): 8 µg/mL | MIC Meropenem + inhibitor (E. coli JMI 10768 [4]): ≤0.031 µg/mL | MIC (E. coli JMI 10770): 8 µg/mL | MIC Aztreonam + inhibitor (E. coli JMI 11103; E. coli JMI 11103 (CTX-M15 (Intermediate ESBL)), Aztreonam + inhibitor at 4 µg/mL): ≤0.062 µg/mL | MIC Ceftazidime + inhibitor (E. coli JMI 11103; E. coli JMI 11103 (CTX-M15 (Intermediate ESBL)), Ceftazidime + inhibitor at 4 µg/mL): ≤0.25 µg/mL | MIC Meropenem + inhibitor (E. coli JMI 11103; E. coli JMI 11103 (CTX-M15 (Intermediate ESBL)), Meropenem + inhibitor at 4 µg/mL): ≤0.031 µg/mL | MIC (E. coli JMI 11103; Escherichia coli, JMI11103, E. coli JMI 11103 (CTX-M15 (Intermediate ESBL)), substance alone): 8 µg/mL
